From patent US20260174780A1, “BISMUTH-THIOL COMPOSITIONS AND METHODS FOR TREATING INFLAMMATORY DISEASES” (Microbion Corporation, priority 2022, published 2026)
Entries after “also recorded” stand apart in the source; their conditions may differ. Where two headings read alike, the source gives them in different places.

Assays:
[1] = Particle size by Nanosizer/Zetasizer Nano-S (volumetric mean diameter); assay type: physicochemical; conditions: resuspended in 2% Pluronic F-68, sonicated; two measurements
Experimental: The dried particulate matter was characterized to assess the particle size properties. Briefly, particles were resuspended in 2% Pluronic® F-68 (BASF, Mt. Olive, NJ) and the suspension was sonicated for 10 minutes in a water bath sonicator at standard setting prior to analysis using a Nanosizer/Zetasizer Nano-S particle analyzer (model ZEN1600 (without zeta-potential measuring capacity), Malvern Instruments, Worcestershire, UK) according to the manufacturer's recommendations.

neutrophils = assay: In vitro model of neutrophil recruitment to the lung (transmigration, supernatant and conditioned media cytokines); assay type: cell-based, human; conditions: for viability of the cells: CF-conditioned media and normal media (LTB4); for neutrophil transmigration / recruitment: CF-conditioned media and LTB4
From the text: FIG. 6 provides a description of the assay for in vitro modeling of neutrophil recruitment to the lung.
FIG. 7 provides a summary of the process for comparing cellular and soluble inflammatory markers in vitro.
The neutrophils used are primary cells harvested from normal healthy volunteers immediately prior to the study. Cellular and soluble inflammatory markers were compared in vitro as described in FIG. 7.

[2] = tested on: lung tissue of M. abscessus infected mice; assay: Lung histopathology in chronic M. abscessus infection study; assay type: in vivo, SCID/Beige mice
Experimental: After 28 days of treatment with BisEDT, animals were euthanized by CO2 and secondary cardiac puncture to collect whole blood for quantitation of BisEDT concentration. Lungs and spleens from the CFU mice were homogenized with 1:1 H2O:Dey-Englev neutralizing broth to deactivate BisEDT. CFUs were determined after serial dilution. Mice for histology and the lung pair split, one half in formalin the other half weighed and snap frozen in liquid N2 to determine tissue concentration of BisEDT.
Samples for histology were processed by the Veterinary Diagnostic Laboratory. Slides were stained with hematoxylin-eosin (HE stain) for general pathology as well as a slide for acid-fast stain to highlight the mycobacterial infection in lung tissue.

[3] = Tolerability of inhaled BisEDT in the M. abscessus mouse study; assay type: in vivo, SCID/Beige mice; conditions: inhaled 200 and 1000 μg/kg/day, 28 days
Experimental: A nose-only inhalation exposure chamber from CH technologies was used for this experiment. Mice were split into four treatment groups, Vehicle (buffer containing no BisEDT), amikacin (100 μg/kg/day), BisEDT “low” (200 μg/kg/day), and BisEDT “high” (1000 μg/kg/day). Each treatment group consisted of 12 mice. Ten of these mice were used for CFU determination and two mice are used for histology/pathology/lung pharmacokinetics. Treatment was conducted 6 days a week over the course of 28 days total. To create the correct level of deposited dose of each drug tested, 10 mL of test article were made. Amikacin in HBSS at 20 mg/mL was made and stored at 4° C. until needed. BisEDT “high” at a concentration of 8 mg/mL was made once a week and stored at room temperature. BisEDT “low” was diluted from the 8 mg/mL to 1.6 mg/mL the day of treatment. Each treatment used an LC star reusable nebulizer from Pari. Animals were restrained and placed on the inhalation apparatus. The respiratory hose was connected to the inhalation apparatus and a compressor was connected to the nebulizer. The rate of air flow from the compressor to the nebulizer remained at 8.5 L/minute, which generated a nebulized fog that each mouse breathed in over 45 min.

[4] = Earlier 28-day tolerability work in rats; conditions: 28 days
TGF-β = TGF-β expression in plasma of M. avium-infected mice; assay type: in vivo; conditions: 28 days treatment, low, med and high dose, compared to vehicle
Experimental: Protocol: M. avium infection was initiated in mice, and 3 weeks were allowed to pass to establish the infection. The animals were treated for 28 days and grouped according to dosage: vehicle, low dose pravibismane, med dose pravibismane, and high dose pravibismane. At the end of treatment, plasma samples were collected for analysis.

[5] = tested on: FITC-induced contact hypersensitivity; assay: FITC-induced contact hypersensitivity in mice (ear swelling, histopathology, ear cytokines); assay type: in vivo, BALB/c mice
Experimental: Protocol: Male BALB/c mice at 8 weeks old are used in the study.
All animals, except those in Group 1 (Sham), were sensitized topically (TOP) on the shaved abdominal skin with 200 μL of 0.5% Fluorescein Isothiocyanate (FITC) dissolved in 20% tributyrin in acetone on Days 1 and 2. On Day 7, animals were challenged by applying 20 μL of 0.5% FITC solution onto both sides of the right ear. Animals in Group 1 received nothing.
Vehicle, BisEDT test articles and reference compound (tacrolimus) were administered topically (TOP) once daily (QD) from Day 6 to Day 9 for 4 consecutive days (1 hour before FITC challenge on Day 7). The vehicle for BisEDT was phosphate-buffered saline (PBS).
• 2.5 mg/mL BisEDT topical suspension • 1.25 mg/mL BisEDT topical suspension—prepared as a 1:1 dilution of 2.5 mg/mL BisEDT topical suspension in sterile water and vortexed to ensure homogeneity
Analysis: Ear swelling was measured by an experimenter blinded to treatment group, with a dial thickness micrometer gauge as an index of inflammation 30 min before dosing on Days 7, 8, 9 and 10. On Day 10, ear swelling was measured at 24 hours after the last dosing. Ear edema was calculated by subtracting the thickness of Day 7 (normal control) from Day n (treated ear). Percentage inhibition was calculated according to the formula: (Ic−It)/Ic×100, where Ic and It refer to the increase of ear thickness (mm) both in the control and treated animals. Body weight was recorded daily during the study period.
The animals were sacrificed on Day 10 and the ears were then harvested and weighed. Half of the right ear was fixed in 10% formalin for histopathology, and the other half was processed for cytokine measurement (IL-18, IL-6, and IL-10) using ThermoFisher Mouse ProcartaPlex Kit by Luminex.

[6] = tested on: M. abscessus clinical strains; assay: Activity in the macrophage system against M. abscessus clinical strains; assay type: cell-based; conditions: all three clinical strains tested
A549 cells = assay: IL-10 expression (ELISA) in A549 cells; assay type: cell-based, human; conditions: 2 μg/mL and 4 μg/mL, 24 h, compared to untreated control
Experimental: A549 cells were differentiated with 50 ng/mL PMA for 24 hours, followed by 24 hours in media prior to infection. Cells were washed with media and treated with insoluble BisEDT or other antibiotics, and incubated for 24 h post treatment. Cell media was then removed and frozen at −80° C. Samples were briefly vortexed before conducting ELISA analysis for IL-10 expression (FIG. 1). BisEDT at a concentration of 2 μg/mL and 4 μg/mL increased the level of IL-10 expression level in A549 cells compared to untreated control.

[7] = topical, compared to vehicle control

Q: Which results are given for `C1C[S][Bi]([S]CC[S][Bi]2[S]CC[S]2)[S]1` [BisEDT, 1,2-(Bis(1,3-dithia-2-bismolane)thio)ethane]?
A: peak VMD [1]: about 1.3 microns; activity of caspase-1 (FLICA) (neutrophils): slightly reduced; IL-18 level in transmigration supernatant (neutrophils; 6 hours, compared to vehicle): appreciably lower level; viability of the cells (neutrophils): very high level of viability; viability of the cells (neutrophils; listed as pravibismane): no effect on cell viability; IL-18 in conditioned media (neutrophils; compared to vehicle): down-regulated; neutrophil transmigration / recruitment (neutrophils; compared to vehicle): lower level of neutrophil transmigration; also recorded: inhibits neutrophil recruitment; neutrophil transmigration / recruitment (neutrophils; compared to vehicle, listed as pravibismane): reduced transmigration efficiency; IL-6 in conditioned media (neutrophils; conditioned media): Very minor changes; expression of VEGF (neutrophils; conditioned media): small increase; interferon-gamma in conditioned media (neutrophils; conditioned media): Very minor changes; activity of caspase-1 (FLICA) (neutrophils; listed as pravibismane): slight reduction; IL-10 secretion (neutrophils; summary): substantially increased; CCL4 (macrophage inflammatory protein) (neutrophils; transmigration supernatant, 6-hour time point): reduced; inflammatory process caused by the test article in lung ([2]; M. abscessus infected, BisEDT treated mice): no indication of an inflammatory process caused by the BisEDT; lung histomorphologic observation ([2]; high-dose (1000 μg/kg/day), FIG. 5D): the inflammatory response was receding and clear airways were observed; lung histomorphologic observation ([2]; low-dose (200 μg/kg/day), FIG. 5C): decrease of inflammatory infiltrate compared to untreated control and a decrease in hemorrhage; body weight at the end of treatment [3]: within the normal weight range; tolerability [3]: well tolerated; dose highly tolerated without adverse effects [4]: 59 µg/kg/day; expression of TGF-β (TGF-β): consistent reduction; overall effect in the FITC-induced contact hypersensitivity model ([5]; mouse, in vivo): overall anti-inflammatory effect; ear swelling ([5]; topical QD x 4, 2.5 and 1.25 mg/mL, compared to vehicle control): statistically significant and dose-dependent reduction; epidermal thickness [5, 7]: significant reduction; histopathological score [5, 7]: significant reduction; activity against M. abscessus in the macrophage system [6]: very active (bactericidal); IL-10 expression level (A549 cells): increased
